Test results from patent US20200010482A1, “INHIBITORS OF BETA SECRETASE” (Janssen Pharmaceutica NV, priority 2017, published 2020).

How the values were obtained:
[1] = tested on: Abeta total produced and secreted by SKNBE2 cells expressing hAPP695; assay: Cellular αLisa assay in SKNBE2 cells, Abeta total; type: cell-based, human; conditions: SKNBE2 cells expressing hAPP695, 18 hours incubation
Description: In two αLisa assays the levels of Abeta total and Abeta 1-42 produced and secreted into the medium of human neuroblastoma SKNBE2 cells are quantified. The assay is based on the human neuroblastoma SKNBE2 expressing the wild type Amyloid Precursor Protein (hAPP695). The compounds are diluted and added to these cells, incubated for 18 hours and then measurements of Abeta 1-42 and Abeta total are taken. Abeta total and Abeta 1-42 are measured by sandwich αLisa. αLisa is a sandwich assay using biotinylated antibody AbN/25 attached to streptavidin coated beads and antibody Ab4G8 or cAb42/26 conjugated acceptor beads for the detection of Abeta total and Abeta 1-42 respectively. In the presence of Abeta total or Abeta 1-42, the beads come into close proximity. The excitation of the donor beads provokes the release of singlet oxygen molecules that trigger a cascade of energy transfer in the acceptor beads, resulting in light emission. Light emission is measured after 1 hour incubation (excitation at […] and emission at 615 nm).
A best-fit curve is fitted by a minimum sum of squares method to the plot of % Controlmin versus compound concentration. From this an IC50 value (inhibitory concentration causing 50% inhibition of activity) can be obtained. • LC=Median of the low control values=Low control: cells preincubated without compound, without biotinylated Ab in the αLisa • HC=Median of the High control values=High Control: cells preincubated without compound
% Effect=100−[(sample−LC)/(HC−LC)*100]
% Control=(sample/HC)*100
% Controlmin=(sample−LC)/(HC−LC)*100

β-secretase I (BACE1) = β-secretase I (BACE1) (Homo sapiens, UniProt P56817); assay: Biochemical assay, automated (CyclOps), BACE1; conditions: automated CyclOps bioassay; for IC50: read-out: AUTOMATED ASSAY BACE1 pIC50 (converted)
Description: (§1) Unless otherwise indicated all biochemicals were purchased from Sigma-Aldrich Chemical Company, Poole, Dorset, U.K. and non-aqueous solvents, of analytical or higher grade, were purchased from ThermoFisher Scientific, Loughborough, U.K. MilliQ water (Elix 5 & MilliQ Gradient; Merck Millipore) was used as the base aqueous solvent to make up the biological buffers. Base assay buffer was prepared by adding a 50 mM solution of citric acid (1.00244; Merck Biosciences) to stirring solution of 50 mM trisodium citrate (1.06448; Merck Biosciences) until a final pH of 5.0 was achieved. […] All assays were routinely carried out in 384-well assay plates (Costar 4514; Corning Life Sciences) and incubated at 37±1° C. for 60 min. prior to reading the endpoint fluorescence intensity. The (7-methoxyl coumarin-4-yl)acetic acid based substrate β-secretase substrate VI (M2465; Bachem) was prepared as a 1 mM stock in 100% DMSO (D/4121/PB08; ThermoFisher). Assay buffer was prepared by adding DMSO to base buffer to a final concentration of 1% (vol./vol.). β-secretase I (18.64 μM; “BACE1”) and β-secretase II (4.65 μM; “BACE2”) were obtained from Janssen Pharmaceutica, Beerse, Belgium and were stored as frozen aliquots (˜20 μl) and thawed as required.
(§2) Typically 12.5 μl of assay buffer was dispensed to rows B to P of the assay plate. To row A was added 18.75 μl of test compound diluted appropriately in assay buffer. A 6.25 μl aliquot of sample was transferred from row A to row B and the sample mixed three times by pipette. The process was repeated down the plate and 6.25 μl of solution discarded at row N post-mix. Rows O and P were designated as the positive and negative controls. To row P was added 6.25 μl base buffer. To rows A to O was added 6.25 μl enzyme (freshly prepared 40 nM BACE1 or 40 nM BACE2) diluted in base buffer. To initiate the assay 6.25 μl of freshly prepared 80 μM substrate, made up by diluting the 1 mM in 100% DMSO solution into HPLC grade water (Optima W6-212; ThermoFisher), was added to all the wells. The assay plate was covered and incubated at 37±1° C. for 60 min. The fluorescence intensity of the wells was read at 360/405 nm (excitation/emission) utilising a nine reads per well protocol (50 ms integration; density of 3, 0.25 mm spacing; SpectraMAX Paradigm plate reader; TUNE cartridge; SoftMax Pro v 6.3 software; Molecular Devices UK Ltd., Wokingham, Berkshire, UK) and outputting the median value of the nine reads as a text file. Data analysis was carried out using Prism software v 6.3 (GraphPad Inc., San Diego, Calif., USA) using the non-linear regression analysis models supplied by the vendor. For IC50 determinations the four parameter logistic variable slope model was used to fit the raw fluorescence intensity data with the ‘bottom’ fixed to the negative control.
(§3) The CyclOps bioassay module consisted of a fraction collection station, a reagent station, liquid handling robotics, plate store and an integrated plate reader (SpectraMAX Paradigm, TUNE cartridge, SoftMax Pro v 6.3; Molecular Devices). The fraction collection station composed of a 384 well collection plate (P-384-240SQ-C; Axygen, Union City, Calif., USA) mounted on a H-portal carriage (Festo AG & Co. KG, Esslingen, Germany), a syringe drive and a two-way six port injection valve fitted with a 200 μl loop (VICI AG International, Schenkon Switzerland). The output of the injection valve was addressable to all the positions of a 384 well collection plate. The reagent station consisted of hydraulically cooled (10-12° C.) aluminium segments; each manufactured to house a SBS microtiter plate footprint. Independent addressable reagent stations were housed within these sections. Where required, custom aluminium housings were used to accommodate standard laboratory plastic ware (e.g. Eppendorf tubes, Falcon tubes, etc.). As and when required the reagent reservoirs were covered and the lids contained holes through which the Teflon-coated probe could access solutions. […]

β-secretase II (BACE2) = target: T1, β-secretase II (BACE2) (Homo sapiens, UniProt Q9Y5Z0); assay: Biochemical assay, automated (CyclOps), BACE2; conditions: automated CyclOps bioassay; for IC50: read-out: AUTOMATED ASSAY BACE2 pIC50 (converted)
T1 sequence (Q9Y5Z0 63-518): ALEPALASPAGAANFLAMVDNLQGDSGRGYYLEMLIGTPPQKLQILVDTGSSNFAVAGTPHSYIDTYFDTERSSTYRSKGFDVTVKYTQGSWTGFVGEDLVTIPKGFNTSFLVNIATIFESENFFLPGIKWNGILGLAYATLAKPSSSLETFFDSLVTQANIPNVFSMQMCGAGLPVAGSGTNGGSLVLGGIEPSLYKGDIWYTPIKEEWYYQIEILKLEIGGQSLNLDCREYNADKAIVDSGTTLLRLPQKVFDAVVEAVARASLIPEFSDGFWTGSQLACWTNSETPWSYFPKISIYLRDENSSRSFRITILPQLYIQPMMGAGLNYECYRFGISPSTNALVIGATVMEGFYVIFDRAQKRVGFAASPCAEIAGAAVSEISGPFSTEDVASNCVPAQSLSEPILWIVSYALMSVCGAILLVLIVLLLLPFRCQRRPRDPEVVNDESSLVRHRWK
Description: as §1, §2, §3

Chain of β-secretase I (BACE1) (P56817 46-501): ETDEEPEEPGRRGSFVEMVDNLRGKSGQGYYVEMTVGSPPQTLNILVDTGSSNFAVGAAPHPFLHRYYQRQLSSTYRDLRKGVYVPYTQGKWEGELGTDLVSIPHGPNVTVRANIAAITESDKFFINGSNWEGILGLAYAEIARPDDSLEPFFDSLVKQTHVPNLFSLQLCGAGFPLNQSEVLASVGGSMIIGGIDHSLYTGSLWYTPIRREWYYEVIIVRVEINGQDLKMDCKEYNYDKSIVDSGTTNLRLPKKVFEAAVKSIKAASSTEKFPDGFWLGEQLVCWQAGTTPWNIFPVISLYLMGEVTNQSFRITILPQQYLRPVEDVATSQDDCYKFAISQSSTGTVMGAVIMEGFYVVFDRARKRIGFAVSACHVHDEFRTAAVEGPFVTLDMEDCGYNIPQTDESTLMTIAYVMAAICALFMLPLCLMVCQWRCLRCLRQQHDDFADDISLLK

IC50 (β-secretase I (BACE1)) [nM]	IC50 (β-secretase II (BACE2)) [nM]	AUTOMATED ASSAY BACE1 pIC50 (β-secretase I (BACE1))	AUTOMATED ASSAY BACE2 pIC50 (β-secretase II (BACE2))	Compound	also measured
–	–	–	–	COc1ncc(C#N)c2c1C[C@]1(c3ccccc3F)N=C(N)SC[C@@H]1C2 (racemic) [Compound 22]	IC50 ([1]; Homo sapiens, SKNBE2, 18 h, read-out: CELLULAR αLISA ASSAY IN SKNBE2 CELLS ABETA TOTAL pIC50 (converted)): 49 nM
9.77	5.89	–	–	COC/C=C/c1cnc(OC)c2c1C[C@H]1CSC(N)=N[C@@]1(c1ccc(F)cc1F)C2 [Compound 47]	–
–	–	8.6	9.02	COc1ncc(-c2ccccc2)c2c1C[C@]1(c3ccc(F)cc3F)N=C(N)SC[C@@H]1C2 [Compound 49]	CELLULAR αLISA ASSAY IN SKNBE2 CELLS ABETA TOTAL pIC50 [1]: 8.75
–	–	7.77	7.3	COc1ncc(-c2ccccc2C)c2c1C[C@]1(c3ccc(F)cc3F)N=C(N)SC[C@@H]1C2 [Compound 55]	–
–	–	7.65	6.73	COc1ncc(-c2cc(Cl)ccc2C)c2c1C[C@]1(c3ccc(F)cc3F)N=C(N)SC[C@@H]1C2 [Compound 60]	–
4.68	75.9	–	–	COc1cc(C)c(-c2cnc(OC)c3c2C[C@H]2CSC(N)=N[C@@]2(c2ccc(F)cc2F)C3)cn1 [Compound 106]	–
